The assay has as its target T1, Fructose-1,6-bisphosphatase 1 (Homo sapiens, UniProt P09467).
T1 sequence (P09467 whole entry): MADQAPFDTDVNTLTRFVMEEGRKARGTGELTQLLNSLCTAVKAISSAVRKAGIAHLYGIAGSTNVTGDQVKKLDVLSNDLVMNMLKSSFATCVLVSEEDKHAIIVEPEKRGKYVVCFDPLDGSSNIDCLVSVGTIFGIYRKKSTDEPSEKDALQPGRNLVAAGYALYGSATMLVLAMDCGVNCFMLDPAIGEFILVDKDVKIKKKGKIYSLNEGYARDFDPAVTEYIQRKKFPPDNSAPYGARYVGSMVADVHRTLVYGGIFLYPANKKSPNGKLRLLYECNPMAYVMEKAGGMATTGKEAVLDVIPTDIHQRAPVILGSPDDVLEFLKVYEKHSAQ
As to the kind of experiment: Inhibition of human liver FBPase expressed in Escherichia coli by spectrophotometry.

Molecule `Nc1ncnc2c1nc(-c1ccc(P(=O)(O)O)o1)n2CCC1CCCCC1` [5-(6-amino-9-(2-cyclohexylethyl)-9H-purin-8-yl)furan-2-ylphosphonic acid] had an IC50 of 1400 nM.

The record behind these values is BindingDB's records for doi:10.1021/jm900078f (Metabasis Therapeutics, 2009).
